Here are results for 19 compounds from ChEMBL document CHEMBL4049402, “Synthesis and cytotoxic activity of novel tetrahydrobenzodifuran-imidazolium salt derivatives” (Bioorg Med Chem Lett, 2017).

Each structure is given as a SMILES string.

Format in all cases: functional, cell-based
For one assay, the system named is A549. Put plainly: Cytotoxicity against human A549 cells after 48 hrs by MTT assay. (Tetrazolium assays rely on reduction of a dye to a coloured formazan, in cell work by metabolically active cells.)
The next assay deals with SMMC-7721. Put plainly: Cytotoxicity against human SMMC7721 cells after 48 hrs by MTT assay.
A further assay has as its system HL-60. In words: Cytotoxicity against human HL60 cells after 48 hrs by MTT assay.
The subject of a further assay is SW480. Put plainly: Cytotoxicity against human SW480 cells after 48 hrs by MTT assay.
The subject of a further assay is MCF7. Put plainly: Cytotoxicity against human MCF7 cells after 48 hrs by MTT assay.

Broadly, the IC50 is the concentration needed to halve the response being measured. The low end stands for greater potency in that assay, the high end for weaker potency in that assay. Turning to `Brc1ccccc1C[n+]1ccn(Cc2c3c(cc4c2OCC4)OCC3)c1`, the IC50 in the assay on A549 (Homo sapiens, A549, 48 h) is more than 20 µM; in the assay on SMMC-7721 (Homo sapiens, SMMC-7721, 48 h), more than 20 µM; in the assay with HL-60 (Homo sapiens, HL-60, 48 h), more than 20 µM; in the assay with SW480 (Homo sapiens, SW480, 48 h), more than 20 µM; with MCF7 (Homo sapiens, MCF7, 48 h), more than 20 µM.

For the compound `Cc1n(Cc2c3c(cc4c2OCC4)OCC3)c2ccccc2[n+]1Cc1ccc2ccccc2c1`, the half-maximal inhibitory concentration (IC50) in the assay on A549 (Homo sapiens, A549, 48 h) came to 9.14 µM; in the assay with SMMC-7721 (Homo sapiens, SMMC-7721, 48 h) it was 5.5 µM; in the assay on HL-60 (Homo sapiens, HL-60, 48 h), 1.76 µM; with SW480 (Homo sapiens, SW480, 48 h), 4.1 µM; with MCF7 (Homo sapiens, MCF7, 48 h), 3.4 µM.

On to `Cc1ccc(C[n+]2ccn(Cc3c4c(cc5c3OCC5)OCC4)c2)cc1`, for which the half-inhibitory concentration (IC50) was more than 20 µM with A549 (Homo sapiens, A549, 48 h); more than 20 µM in the assay on SMMC-7721 (Homo sapiens, SMMC-7721, 48 h); more than 20 µM in the assay with HL-60 (Homo sapiens, HL-60, 48 h); more than 20 µM in the assay with SW480 (Homo sapiens, SW480, 48 h); more than 20 µM in the assay on MCF7 (Homo sapiens, MCF7, 48 h).

As for `Cc1ccc(C[n+]2c(C)n(Cc3c4c(cc5c3OCC5)OCC4)c3ccccc32)cc1`, the IC50 in the assay on A549 (Homo sapiens, A549, 48 h) is more than 20 µM; in the assay on SMMC-7721 (Homo sapiens, SMMC-7721, 48 h), more than 20 µM; in the assay with HL-60 (Homo sapiens, HL-60, 48 h) it was more than 20 µM; in the assay with SW480 (Homo sapiens, SW480, 48 h), more than 20 µM; in the assay on MCF7 (Homo sapiens, MCF7, 48 h) it was more than 20 µM.

Turning to `c1ccc2c(c1)ncn2Cc1c2c(cc3c1OCC3)OCC2`, the half-inhibitory concentration (IC50) was more than 20 µM in the assay with A549 (Homo sapiens, A549, 48 h); more than 20 µM in the assay on SMMC-7721 (Homo sapiens, SMMC-7721, 48 h); more than 20 µM in the assay with HL-60 (Homo sapiens, HL-60, 48 h); more than 20 µM in the assay on SW480 (Homo sapiens, SW480, 48 h); more than 20 µM with MCF7 (Homo sapiens, MCF7, 48 h).

Regarding `Cc1cc2c(cc1C)[n+](Cc1ccc(Br)cc1)cn2Cc1c2c(cc3c1OCC3)OCC2`, the IC50 with A549 (a549) turned out to be 9.01 µM; in the assay on SMMC-7721 (smmc-7721), 6.61 µM; with HL-60 (hl-60), 0.57 µM; with SW480 (sw480) it was 7.76 µM; with MCF7 (mcf7) it was 8.05 µM.

On to `c1ccc2cc(C[n+]3ccn(Cc4c5c(cc6c4OCC6)OCC5)c3)ccc2c1`, for which the IC50 in the assay on A549 (Homo sapiens, A549, 48 h) is more than 20 µM; in the assay on SMMC-7721 (Homo sapiens, SMMC-7721, 48 h), more than 20 µM; with HL-60 (Homo sapiens, HL-60, 48 h) it was more than 20 µM; in the assay on SW480 (Homo sapiens, SW480, 48 h), more than 20 µM; with MCF7 (Homo sapiens, MCF7, 48 h), more than 20 µM.

On to `COc1ccc(C(=O)C[n+]2cn(Cc3c4c(cc5c3OCC5)OCC4)c3cc(C)c(C)cc32)cc1`, for which the 50% inhibitory concentration (IC50) came to 15.4 µM with A549 (Homo sapiens, A549, 48 h); 6.87 µM in the assay with SMMC-7721 (Homo sapiens, SMMC-7721, 48 h); 2.71 µM in the assay on HL-60 (Homo sapiens, HL-60, 48 h); 13.7 µM in the assay on SW480 (Homo sapiens, SW480, 48 h); 9.87 µM in the assay on MCF7 (Homo sapiens, MCF7, 48 h).

Take `O=C(C[n+]1cn(Cc2c3c(cc4c2OCC4)OCC3)c2ccccc21)c1ccc2ccccc2c1`: the concentration for half-maximal inhibition (IC50) in the assay with A549 (Homo sapiens, A549, 48 h) came out at 7.73 µM; with SMMC-7721 (Homo sapiens, SMMC-7721, 48 h), 5.25 µM; in the assay with HL-60 (Homo sapiens, HL-60, 48 h), 1.88 µM; with SW480 (Homo sapiens, SW480, 48 h), 5.42 µM; in the assay with MCF7 (Homo sapiens, MCF7, 48 h), 2.2 µM.

In the case of `O=C(C[n+]1ccn(Cc2c3c(cc4c2OCC4)OCC3)c1)c1ccc(Br)cc1`, the IC50 in the assay on A549 (Homo sapiens, A549, 48 h) was more than 20 µM; in the assay with SMMC-7721 (Homo sapiens, SMMC-7721, 48 h), more than 20 µM; in the assay on HL-60 (Homo sapiens, HL-60, 48 h) it was more than 20 µM; in the assay on SW480 (Homo sapiens, SW480, 48 h) it was more than 20 µM; in the assay on MCF7 (Homo sapiens, MCF7, 48 h), more than 20 µM.

On to `Cc1cc2c(cc1C)[n+](CC(=O)c1ccccc1)cn2Cc1c2c(cc3c1OCC3)OCC2`, for which the half-maximal inhibitory concentration (IC50) with A549 (Homo sapiens, A549, 48 h) was more than 20 µM; in the assay on SMMC-7721 (Homo sapiens, SMMC-7721, 48 h) it was 17.4 µM; in the assay with HL-60 (Homo sapiens, HL-60, 48 h) it was 5.68 µM; with SW480 (Homo sapiens, SW480, 48 h), 11.9 µM; with MCF7 (Homo sapiens, MCF7, 48 h), 7.8 µM.

In the case of `c1ccc2cc(C[n+]3cn(Cc4c5c(cc6c4OCC6)OCC5)c4ccccc43)ccc2c1`, the IC50 stood at 10.7 µM in the assay on A549 (Homo sapiens, A549, 48 h); 5.66 µM with SMMC-7721 (Homo sapiens, SMMC-7721, 48 h); 2.3 µM in the assay with HL-60 (Homo sapiens, HL-60, 48 h); 4.11 µM in the assay on SW480 (Homo sapiens, SW480, 48 h); 2.62 µM with MCF7 (Homo sapiens, MCF7, 48 h).

Regarding `Cc1n(Cc2c3c(cc4c2OCC4)OCC3)c2ccccc2[n+]1Cc1ccccc1Br`, the IC50 in the assay on A549 (Homo sapiens, A549, 48 h) is more than 20 µM; in the assay on SMMC-7721 (Homo sapiens, SMMC-7721, 48 h), more than 20 µM; with HL-60 (Homo sapiens, HL-60, 48 h) it was more than 20 µM; with SW480 (Homo sapiens, SW480, 48 h) it was more than 20 µM; in the assay with MCF7 (Homo sapiens, MCF7, 48 h), more than 20 µM.

`O=C(C[n+]1cn(Cc2c3c(cc4c2OCC4)OCC3)c2ccccc21)c1ccc(Br)cc1`: the concentration for half-maximal inhibition (IC50) was 16.1 µM in the assay on A549 (Homo sapiens, A549, 48 h); 5.95 µM in the assay on SMMC-7721 (Homo sapiens, SMMC-7721, 48 h); 5.81 µM with HL-60 (Homo sapiens, HL-60, 48 h); 5.11 µM in the assay with SW480 (Homo sapiens, SW480, 48 h); 5.12 µM in the assay on MCF7 (Homo sapiens, MCF7, 48 h).

`O=[N+]([O-])c1ccc(C[n+]2cn(Cc3c4c(cc5c3OCC5)OCC4)c3ccccc32)cc1`: the IC50 in the assay with A549 (Homo sapiens, A549, 48 h) is more than 20 µM; in the assay with SMMC-7721 (Homo sapiens, SMMC-7721, 48 h) it was more than 20 µM; in the assay on HL-60 (Homo sapiens, HL-60, 48 h), more than 20 µM; with SW480 (Homo sapiens, SW480, 48 h), more than 20 µM; in the assay on MCF7 (Homo sapiens, MCF7, 48 h), more than 20 µM.

Turning to `O=C(C[n+]1ccn(Cc2c3c(cc4c2OCC4)OCC3)c1)c1ccc2ccccc2c1`, the half-maximal inhibitory concentration (IC50) is more than 20 µM in the assay with A549 (Homo sapiens, A549, 48 h); more than 20 µM in the assay on SMMC-7721 (Homo sapiens, SMMC-7721, 48 h); more than 20 µM with HL-60 (Homo sapiens, HL-60, 48 h); more than 20 µM in the assay on SW480 (Homo sapiens, SW480, 48 h); more than 20 µM in the assay with MCF7 (Homo sapiens, MCF7, 48 h).

Regarding `c1cn(Cc2c3c(cc4c2OCC4)OCC3)cn1`, the IC50 in the assay with A549 (Homo sapiens, A549, 48 h) is more than 20 µM; in the assay on SMMC-7721 (Homo sapiens, SMMC-7721, 48 h) it was more than 20 µM; in the assay on HL-60 (Homo sapiens, HL-60, 48 h), more than 20 µM; in the assay on SW480 (Homo sapiens, SW480, 48 h), more than 20 µM; in the assay with MCF7 (Homo sapiens, MCF7, 48 h), more than 20 µM.

For `Cc1ccc(C[n+]2cn(Cc3c4c(cc5c3OCC5)OCC4)c3cc(C)c(C)cc32)cc1`, the IC50 in the assay with A549 (a549) worked out at 4.06 µM; in the assay with SMMC-7721 (smmc-7721), 6.49 µM; in the assay on HL-60 (hl-60) it was 0.38 µM; in the assay with SW480 (sw480) it was 6.31 µM; in the assay with MCF7 (mcf7) it was 7.98 µM.

On to `Cc1ccc(C[n+]2cn(Cc3c4c(cc5c3OCC5)OCC4)c3ccccc32)cc1`, for which the half-maximal inhibitory concentration (IC50) with A549 (Homo sapiens, A549, 48 h) was more than 20 µM; with SMMC-7721 (Homo sapiens, SMMC-7721, 48 h), more than 20 µM; in the assay on HL-60 (Homo sapiens, HL-60, 48 h), more than 20 µM; in the assay with SW480 (Homo sapiens, SW480, 48 h), more than 20 µM; in the assay on MCF7 (Homo sapiens, MCF7, 48 h), more than 20 µM.
